The record followed here is US4732916A, “Novel guanidinomethylbenzoic acid derivatives” (Kabushiki Kaisha Med-Creat, priority 1985, dated 1988).

Assay type in all cases: in vivo
The subject of data set [1] is indomethacin induced ulcer. The data set can be described thus: Test Method 3: Effect on Indomethacin Induced Ulcer. The settings on record: Rattus norvegicus; SD male rats, oral, 15 minutes before s.c. indomethacin (30 mg/kg); stomachs removed after 5 hours. How it is done: The method of Okabe et al (Jap. J. Pharmacol., 29, 670 (1979)) was followed.
SD male rats each weighing from 180 to 200 g (8 weeks of age and 6 to 8 in one group) were fasted for 24 hours, followed by oral administration of the test compounds which had been suspended in 1% CMC aqueous solution, and 15 minutes afterwards, by subcutaneous administration of indomethacin (30 mg/kg of weight) which had been dissolved in 3% sodium bicarbonate aqueous solution. After lapse of 5 hours, the animals were killed under etherization to take out the stomachs. Each of the stomachs was injected with 12 ml of 1% formalin aqueous solution containing 0.1% pontamine sky blue and then immersed in 1% formalin aqueous solution for 15 minutes. The ulcer factor and ulcer inhibition rate were determined in a manner similar to Test Method 1. The ED50 values were obtained from the dosesulcer inhibition rates curve.

Another data set concerns ddY male mice. Put plainly: Test Method 4: Acute Toxicity-Minimum Lethal Dose (MLD). The settings on record: oral, observation over 7 days. The source says: ddY Male mice each weighing from 20 to 22 g (4 weeks of age and 5 mice in one group) were fasted overnight, followed by oral administration of the test compounds which had been suspended in 1% CMC aqueous solution. Observation was made as to the death of the animals over 7 days to thereby determine the minimum lethal doses (MLD).

Another data set relates to stress induced ulcer. Put plainly: Test Method 1: Effect on Stress Induced Ulcer. Conditions: Rattus norvegicus; SD male rats, oral, 15 minutes before restraint and water immersion (24° C., 18 hours); from doses-ulcer inhibition rates curve. How it is done: 1. Test Procedures The method of Takagi et al (Jap. J. Pharmacol., 18, 9 (1968)) was followed. SD male rats each weighing from 180 to 200 g (8 weeks of age and 6 to 8 rats in one group) were fasted for 24 hours, followed by oral administration of the above test compounds which had been suspended in 1% CMC aqueous solution. 15 minutes later, the animals were put into a stress cage which was then immersed in a water tank at 24° C. at the depth of the […] of the animals. After being immersed for 18 hours, the animals were killed under etherization to excise the stomachs. Each of the stomachs was injected with 12 ml of 1% formalin aqueous solution and then immersed in 1% formalin aqueous solution for 15 minutes. The stomach was incised along its upper curvature and measured by an anatomic microscopy for the major axis (mm) of each ulcer that had developed on the gastric mucous membrane. The total major axis (mm) was taken as the ulcer factor. The ulcer inhibition rate was obtained from the following equation. The ED50 values were obtained from the doses-ulcer inhibition rates curve. [formula] where l is the ulcer factor of a group without the test compounds administered, and m is the ulcer factor of a group having such compounds administered.

The next data set deals with ethanol induced ulcer. The data set can be described thus: Test Method 2: Effect on Ethanol Induced Ulcer. Conditions: Rattus norvegicus; SD male rats, oral, 30 minutes before oral ethanol (99.5%, 1 ml); stomachs removed one hour later. The protocol: 1. Test Procedures The method of Robert (Gastroenterology, 77, 433 (1979)) was followed. SD male rats each weighing from 180 to 200 g (8 weeks of age and 6 to 8 rats in one group) were fasted for 24 hours, followed by oral administration of the test compounds which had been suspended in 1% CMC aqueous solution. After lapse of 30 minutes, 1 ml of ethanol (99.5%) was orally administered. One hour later, the animals were killed under etherization to remove the stomachs. Each of the stomachs was injected with 12 ml of 1% formalin aqueous solution and then immersed in 1% formalin aqueous solution for 15 minutes. The ulcer factor and ulcer inhibition rate were determined in a manner similar to Test Method 1. The ED50 values were obtained from the doses-ulcer inhibition rates curve.

A word on the ED50: it is the dose that gives a 50% effect, or the effect in half of the subjects. Higher therefore signals a need for a large dose. Turning to `N=C(N)NCc1ccc(C(=O)Nc2ccccc2)cc1` [Compound A, N-phenyl-4-guanidinomethylbenzamide], the ED50 in data set [1] was found to be 58 mg/kg; in the data set with stress induced ulcer, 34 mg/kg; in the data set with ethanol induced ulcer it was 35 mg/kg. Also, in the data set on ddY male mice, the “MLD, acute toxicity test (minimum lethal dose)” value is given as above 3000 mg/kg.

Turning to `Cl.N=C(N)NC[C@H]1CC[C@H](C(=O)Nc2ccccc2)CC1` [Compound B, N-(phenyl)-trans-4-guanidinomethylcyclohexanecarboxamide hydrochloride], the values for the ED50 (in data set [1]; in the data set on stress induced ulcer; with ethanol induced ulcer) were 73 mg/kg, 143 mg/kg and 220 mg/kg, respectively. Further, the “MLD, acute toxicity test (minimum lethal dose)” value in the data set with ddY male mice is recorded as below 1000 mg/kg.
